This experiment concerns HCT-116. Description: Induction of cell cycle arrest in human HCT-116 cells assessed as accumulation of cells at G0/G1 phase at 7.5 uM incubated for 48 hrs by PI staining based flow cytometry (reference value: 62.1%). It counts as functional.

In ChEMBL document CHEMBL5346921, “Discovery of novel benzamide derivatives bearing benzamidophenyl and phenylacetamidophenyl scaffolds as potential antitumor agents via targeting PARP-1” (Eur J Med Chem, 2023) one finds Activity data, which are given here for one molecule.

Structures are written as SMILES.

As to `NC(=O)c1ccccc1OCc1cccc(NC(=O)c2ccc(Br)cc2)c1`, the Activity worked out at 49.7%.
